Where two headings read alike, the source gives them in different places.
Assays:
[1] = molecular target: T1, CB2 receptor (Homo sapiens, UniProt P34972); experiment: Binding assay for CB2 agonists or inverse agonists (SK-N-MC membranes, [3H]-CP-55,940); conditions: for inhibition at 0.25 µM: test concentration 0.25 μM (footnote 8)
T1 construct: expressed in transfected cells
How it was run: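 IC50 came from percent-inhibition data over several compound concentrations, fitted by linear regression. Binding used semi-purified membranes of human CB2-transfected SK-N-MC cells, 90 min at 30 °C, pH 7.5 Tris-HCl with MgCl2, EDTA and BSA, then filtration and scintillation counting.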

[2] = molecular target: T2, CB1 receptor (Homo sapiens, UniProt P21554); experiment: Binding assay for CB1 agonists or inverse agonists (SK-N-MC membranes, [3H]-CP-55,940); conditions: for IC50: Cannabinoid CB1 Receptor Binding IC50, calculated by linear regression from percent inhibition at various test concentrations; for inhibition at 1 µM: read-out: CB1 receptor binding percent inhibition, test concentration 1 μM (footnote 1); for inhibition at 0.2 µM: read-out: CB1 receptor binding percent inhibition, test concentration 0.2 μM (footnote 2); for inhibition at 0.25 µM: read-out: CB1 receptor binding percent inhibition, test concentration 0.25 μM (footnote 8)
T2 construct: expressed in transfected cells
T2 sequence (P21554 whole entry): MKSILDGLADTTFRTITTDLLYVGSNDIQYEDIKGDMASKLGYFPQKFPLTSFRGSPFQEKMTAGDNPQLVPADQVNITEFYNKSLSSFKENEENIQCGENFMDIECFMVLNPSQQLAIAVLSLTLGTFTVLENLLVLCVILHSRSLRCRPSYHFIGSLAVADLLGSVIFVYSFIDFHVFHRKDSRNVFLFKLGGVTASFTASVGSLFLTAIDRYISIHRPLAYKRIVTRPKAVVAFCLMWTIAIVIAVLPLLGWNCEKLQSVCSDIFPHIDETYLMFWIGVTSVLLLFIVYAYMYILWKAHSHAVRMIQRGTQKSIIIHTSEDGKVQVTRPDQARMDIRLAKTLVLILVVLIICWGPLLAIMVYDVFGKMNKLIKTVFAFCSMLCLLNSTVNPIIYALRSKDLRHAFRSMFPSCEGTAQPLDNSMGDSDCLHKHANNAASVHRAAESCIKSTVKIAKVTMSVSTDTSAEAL
How it was run: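 Radioligand displacement: [3H]-CP-55,940 at […], 90 min at 30° C, pH 7.5 Tris buffer with 0.5 mg/mL fatty-acid-free BSA, using semi-purified membranes of human-CB1-transfected SK-N-MC cells. Bound counts collected on GF/C filters, 10 uM WIN 55,212 for non-specific; IC50 from percent inhibition over several concentrations.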

[3] = test concentration 0.2 μM (footnote 2), read-out: CB2 receptor binding percent inhibition
[4] = read-out: CB2 receptor binding percent inhibition

T1 sequence (P34972 whole entry): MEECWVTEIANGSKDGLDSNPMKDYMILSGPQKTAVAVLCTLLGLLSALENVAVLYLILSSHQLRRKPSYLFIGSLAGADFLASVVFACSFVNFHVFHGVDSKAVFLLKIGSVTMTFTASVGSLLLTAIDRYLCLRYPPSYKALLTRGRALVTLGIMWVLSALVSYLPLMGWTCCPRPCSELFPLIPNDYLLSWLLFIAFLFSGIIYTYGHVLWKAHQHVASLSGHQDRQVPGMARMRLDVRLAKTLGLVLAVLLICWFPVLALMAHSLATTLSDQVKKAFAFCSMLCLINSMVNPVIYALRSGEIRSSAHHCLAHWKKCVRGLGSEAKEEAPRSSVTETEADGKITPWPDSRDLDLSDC

| SMILES | CB2 receptor binding percent inhibition ([1]; test concentration not stated) | inhibition at 1 µM [2] | inhibition at 0.2 µM [1, 3] | inhibition at 0.2 µM [2] | other results |
| --- | --- | --- | --- | --- | --- |
| O=C(N[C@@H]1c2ccccc2C[C@@H]1O)c1nn(C2CCCCC2)c2c1CCCCC2Cc1ccc(F)cc1 (relative stereo) [Cpd 121, (8S*)-1-cyclohexyl-8-(4-fluoro-benzyl)-1,4,5,6,7,8-hexahydro-cycloheptapyrazole-3-carboxylic acid [(1R,2S)-2-hydroxy-indan-1-yl]-amide] | 95% | 80% |  |  | IC50 [2]: 400 nM; inhibition at 0.5 µM ([2]; read-out: CB1 receptor binding percent inhibition, test concentration 0.5 μM (footnote 10)): 70% |
| O=C(NC12CC3CC(CC1C3)C2)c1nn(C2CCCCC2)c2c1CCCCC2Cc1cccc(Cl)c1 (centres unmarked) [Cpd 9, 8-(3-chloro-benzyl)-1-cyclohexyl-1,4,5,6,7,8-hexahydro-cycloheptapyrazole-3-carboxylic acid (hexahydro-2,5-methano-pentalen-3a-yl)-amide] | 4% | 18% |  |  |  |
| O=C(c1nn(-c2cc(Cl)ccc2Cl)c2c1CCCC/C2=C\c1ccc(Cl)cc1)N1CCOCC1 [Cpd 201, (8E)-[8-(4-chloro-benzylidene)-1-(2,5-dichloro-phenyl)-1,4,5,6,7,8-hexahydro-cycloheptapyrazol-3-yl]-morpholin-4-yl-methanone] |  |  | 0% | 11% |  |
| C[C@H](NC(=O)c1nn(-c2ccc(Cl)cc2Cl)c2c1CCCCC2Cc1ccc(Cl)cc1)c1ccccc1 (stereo partly drawn) [Cpd 76, 8-(4-chloro-benzyl)-1-(2,4-dichloro-phenyl)-1,4,5,6,7,8-hexahydro-cycloheptapyrazole-3-carboxylic acid [(1S)-1-phenyl-ethyl]-amide] | 38% |  |  |  | CB1 receptor binding average percent inhibition ([2]; value shown is an average percent inhibition (footnote 5), concentration not given): ^(5)44% |
| O=C(NN1CCOCC1)c1nn(-c2ccncc2)c2c1CCCC/C2=C\c1ccc(Cl)cc1 [Cpd 183, (8E)-8-(4-chloro-benzylidene)-1-pyridin-4-yl-1,4,5,6,7,8-hexahydro-cycloheptapyrazole-3-carboxylic acid morpholin-4-ylamide] |  |  | 14% | 0% |  |
| CC12CCC(C1)C(C)(C)[C@H]2NC(=O)c1nn(C2CCCCC2)c2c1CCCCC2Cc1ccc(Cl)cc1 (stereo partly drawn) [Cpd 2, 8-(4-chloro-benzyl)-1-cyclohexyl-1,4,5,6,7,8-hexahydro-cycloheptapyrazole-3-carboxylic acid [(2S)-1,3,3-trimethyl-bicyclo[2.2.1]hept-2-yl]-amide] | 53% | 21% |  |  |  |
| O=C(NC1CCC1)c1nn(C2CCCCC2)c2c1CCCCC2Cc1ccccc1Cl (centres unmarked) [Cpd 23, 8-(2-chloro-benzyl)-1-cyclohexyl-1,4,5,6,7,8-hexahydro-cycloheptapyrazole-3-carboxylic acid cyclobutylamide] | 24% | 0% |  |  |  |
| C[C@@H](NC(=O)c1nn(C2CCCCC2)c2c1CCCCC2Cc1cccc(F)c1)c1ccccc1 (stereo partly drawn) [Cpd 174, 1-cyclohexyl-8-(3-fluoro-benzyl)-1,4,5,6,7,8-hexahydro-cycloheptapyrazole-3-carboxylic acid [(1R)-1-phenyl-ethyl]-amide] |  |  | 33% | 0% |  |
| O=C(NCc1ccccc1)c1n[nH]c2c1CCCCC2Cc1ccc(F)cc1 (centres unmarked) [Cpd 129, 8-(4-fluoro-benzyl)-1,4,5,6,7,8-hexahydro-cycloheptapyrazole-3-carboxylic acid benzylamide] |  |  |  |  | inhibition at 0.25 µM [1, 4]: 86%; inhibition at 0.002 µM ([2]; read-out: CB1 receptor binding percent inhibition, test concentration 0.002 μM (footnote 11)): 92%; inhibition at 0.008 µM ([2]; read-out: CB1 receptor binding percent inhibition, test concentration 0.008 μM (footnote 12)): 90%; inhibition at 0.25 µM [2]: 100%; CB1 receptor binding percent inhibition ([2]; test concentration not stated): 94% |
| O=C(NC1CCC1)c1nn(C2CCCCC2)c2c1CCCCC2Cc1ccc(Cl)cc1 (centres unmarked) [Cpd 37, 8-(4-chloro-benzyl)-1-cyclohexyl-1,4,5,6,7,8-hexahydro-cycloheptapyrazole-3-carboxylic acid cyclobutylamide] | 10% | 15% |  |  |  |
| O=C(N[C@@H](CCl)c1ccccc1)c1nn(-c2nccc(C(F)(F)F)n2)c2c1CCCCC2Cc1cccc(Cl)c1 (stereo partly drawn) [Cpd 178, 8-(3-chloro-benzyl)-1-(4-trifluoromethyl-pyrimidin-2-yl)-1,4,5,6,7,8-hexahydro-cycloheptapyrazole-3-carboxylic acid [(1R)-2-chloro-1-phenyl-ethyl]-amide] |  |  | 29% | 29% |  |
| O=C(N[C@@H](CO)c1ccccc1)c1nn(-c2nccc(C(F)(F)F)n2)c2c1CCCCC2Cc1cccc(Cl)c1 (stereo partly drawn) [Cpd 176, 8-(3-chloro-benzyl)-1-(4-trifluoromethyl-pyrimidin-2-yl)-1,4,5,6,7,8-hexahydro-cycloheptapyrazole-3-carboxylic acid [(1R)-2-hydroxy-1-phenyl-ethyl]-amide] |  |  | 43% | 4% |  |
| O=C(N[C@@H](CO)Cc1ccccc1)c1nn(-c2nccc(C(F)(F)F)n2)c2c1CCCCC2Cc1cccc(Cl)c1 (stereo partly drawn) [Cpd 186, 8-(3-chloro-benzyl)-1-(4-trifluoromethyl-pyrimidin-2-yl)-1,4,5,6,7,8-hexahydro-cycloheptapyrazole-3-carboxylic acid [(1R)-1-benzyl-2-hydroxy-ethyl]-amide] |  |  | 58% | 12% |  |
| O=C(NN1CCOCC1)c1nn(C2CCCCC2)c2c1CCCCC2Cc1ccc(F)cc1 (centres unmarked) [Cpd 89, 1-cyclohexyl-8-(4-fluoro-benzyl)-1,4,5,6,7,8-hexahydro-cycloheptapyrazole-3-carboxylic acid morpholin-4-ylamide] | 0% | 11% |  |  |  |
| C[C@@H](NC(=O)c1nn(-c2ccc(F)cc2F)c2c1CCCCC2Cc1cccc(F)c1)c1ccccc1 (stereo partly drawn) [Cpd 173, 1-(2,4-difluoro-phenyl)-8-(3-fluoro-benzyl)-1,4,5,6,7,8-hexahydro-cycloheptapyrazole-3-carboxylic acid [(1R)-1-phenyl-ethyl]-amide] |  |  | 19% | 32% |  |
| C[C@@H](NC(=O)c1n[nH]c2c1CCCC/C2=C\c1ccc(Cl)cc1)C1CCCCC1 [Cpd 140, (8E)-8-(4-chloro-benzylidene)-1,4,5,6,7,8-hexahydro-cycloheptapyrazole-3-carboxylic acid [(1R)-1-cyclohexyl-ethyl]-amide] |  |  |  | 97% | CB2 receptor binding percent inhibition ([1]; test concentration 0.2 μM (footnote 2)): ^(2)100%; IC50 [2]: 6 nM |
| COC(=O)[C@@H](Cc1ccc(F)cc1)NC(=O)c1nn(Cc2ccccc2)c2c1CCCCC2c1ccccc1 (stereo partly drawn) [Cpd 87, (2R)-2-[(1-benzyl-8-phenyl-1,4,5,6,7,8-hexahydro-cycloheptapyrazole-3-carbonyl)-amino]-3-(4-fluoro-phenyl)-propionic acid methyl ester] |  |  |  |  | inhibition at 0.25 µM [1, 4]: 0%; inhibition at 0.25 µM [2]: 4% |
| C[C@@H](NC(=O)c1nn(-c2cc(Cl)ccc2Cl)c2c1CCCC/C2=C\c1ccc(Cl)cc1)C1CCCCC1 [Cpd 196, (8E)-8-(4-chloro-benzylidene)-1-(2,5-dichloro-phenyl)-1,4,5,6,7,8-hexahydro-cycloheptapyrazole-3-carboxylic acid [(1R)-1-cyclohexyl-ethyl]-amide] |  |  |  | 67% | inhibition at 0.2 µM ([1]; read-out: CB2 receptor binding percent inhibition, test concentration 0.2 μM (footnote 2)): 49% |
| O=C(NN1CCOCC1)c1nn(-c2cc(Cl)ccc2Cl)c2c1CCCC/C2=C\c1ccc(Cl)cc1 [Cpd 200, (8E)-8-(4-chloro-benzylidene)-1-(2,5-dichloro-phenyl)-1,4,5,6,7,8-hexahydro-cycloheptapyrazole-3-carboxylic acid morpholin-4-ylamide] |  |  | 6% | 15% |  |
